Data from US10125111B2, “Benzofuran compounds for the treatment of hepatitis C” (BRISTOL-MYERS SQUIBB COMPANY, priority 2015, dated 2018).
pEC50: −log10 of the molar value. Read-outs that look alike come from different tables or passages of the source.

Test system: genotype 1b (Con-1) HCV replicon
Test: HCV Replicon Luciferase Assay
Format: cell-based
Settings: Hepatitis C virus, 72 h, Huh-7 genotype 1b replicon, Renilla luciferase, 3 days incubation; for pEC50: read-out: EC50 1b (class); for EC50: read-out: EC50 (uM) 1b
Protocol: The cell lines used to evaluate compounds consist of a human hepatocyte derived cell line (Huh-7) that constitutively expresses a genotype 1b (Con-1) HCV replicon or a genotype 1b (Con-1) HCV replicon with an asparagine replacing the cysteine at amino acid 316, or a genotype 2a (JFH-1) replicon, containing a Renilla luciferase reporter gene. These cells were maintained in Dulbecco's modified Eagle medium (DMEM) containing 10% FBS, 100 U/mL penicillin/streptomycin and 1.0 mg/mL G418.
To evaluate compound efficacy, titrated compounds were transferred to sterile 384-well tissue culture treated plates, and the plates were seeded with HCV replicon cells (50 μL at a density of 2.4×10^3 cells/well) in DMEM containing 4% FBS (final DMSO concentration at 0.5%). After 3 days incubation at 37° C., cells were analyzed for Renilla Luciferase activity using the EnduRen substrate (Promega cat #E6485) according to the manufacturer's directions. Briefly, the EnduRen substrate was diluted in DMEM and then added to the plates to a final concentration of 7.5 μM. The plates were incubated for at least 1 h at 37° C. then read on a Viewlux Imager (PerkinElmer) using a luminescence program. The 50% effective concentration (EC50) was calculated using the four-parameter logistic Formula noted above.
Compound EC50 data is expressed as A: <100 nM; B=100-1000 nM; C>1000 nM).

SMILES | pEC50 | EC50 [µM]
CNC(=O)c1c(-c2ccc(F)cc2)oc2cc(N(CC#N)S(C)(=O)=O)c(-c3cccc(C(=O)OC)c3)cc12 [Compound 1001] | > 7.00 | 0.0578
CNC(=O)c1c(-c2ccc(F)cc2)oc2cc(N(CC#N)S(C)(=O)=O)c(-c3cccc(C(=O)NC(C)(C)C(F)(F)F)c3)cc12 [Compound 1002] | > 7.00 | –
CNC(=O)c1c(-c2ccc(F)cc2)oc2cc(N(CC3CC3)S(C)(=O)=O)c(-c3cccc(C(=O)OC)c3)cc12 [Compound 2001] | > 7.00 | –
CNC(=O)c1c(-c2ccc(F)cc2)oc2cc(N(CC3CC3)S(C)(=O)=O)c(-c3cccc(C(=O)O)c3)cc12 [Compound 2002] | < 6.00 | 7.55
CNC(=O)c1c(-c2ccc(F)cc2)oc2cc(N(CC3CC3)S(C)(=O)=O)c(-c3cccc(C(=O)NC(C)(C)C(F)(F)F)c3)cc12 [Compound 2003] | > 7.00 | –
CNC(=O)c1c(-c2ccc(F)cc2)oc2cc(N(CC3CC3)S(C)(=O)=O)c(-c3cccc(C(=O)NC(CF)(CF)CF)c3)cc12 [Compound 2004] | > 7.00 | –
CNC(=O)c1c(-c2ccc(F)cc2)oc2cc(N(CC3CC3)S(C)(=O)=O)c(-c3cccc(C(=O)NC(C)(C)C#N)c3)cc12 [Compound 2005] | > 7.00 | 0.0147
[2H]C([2H])([2H])C(NC(=O)c1cccc(-c2cc3c(C(=O)NC)c(-c4ccc(F)cc4)oc3cc2N(CC2CC2)S(C)(=O)=O)c1)(C([2H])([2H])[2H])C([2H])([2H])[2H] [Compound 2006] | > 7.00 | –
CNC(=O)c1c(-c2ccc(F)cc2)oc2cc(N(CCF)S(C)(=O)=O)c(-c3cccc(C(=O)NC(C)(C)C(F)(F)F)c3)cc12 [Compound 3003] | > 7.00 | –
CNC(=O)c1c(-c2ccc(F)cc2)oc2cc(N(CCF)S(C)(=O)=O)c(-c3cccc(C(=O)NC(CF)(CF)CF)c3)cc12 [Compound 3004] | > 7.00 | –
CNC(=O)c1c(-c2ccc(F)cc2)oc2cc(N(CCF)S(C)(=O)=O)c(-c3cccc(C(=O)NC(C)(C)C#N)c3)cc12 [Compound 3005] | > 7.00 | 0.005
[2H]C([2H])([2H])C(NC(=O)c1cccc(-c2cc3c(C(=O)NC)c(-c4ccc(F)cc4)oc3cc2N(CCF)S(C)(=O)=O)c1)(C([2H])([2H])[2H])C([2H])([2H])[2H] [Compound 3006] | > 7.00 | –
CC[C@@H](NC(=O)c1cccc(-c2cc3c(C(=O)NC)c(-c4ccc(F)cc4)oc3cc2N(CCF)S(C)(=O)=O)c1)C1CC1 [Compound 3007] | > 7.00 | 0.0057
CC[C@H](NC(=O)c1cccc(-c2cc3c(C(=O)NC)c(-c4ccc(F)cc4)oc3cc2N(CCF)S(C)(=O)=O)c1)C1CC1 [Compound 3008] | > 7.00 | –
CNC(=O)c1c(-c2ccc(F)cc2)oc2cc(N(CCF)S(C)(=O)=O)c(-c3cccc(C(=O)N[C@@H](C)C4CC4)c3)cc12 [Compound 3009] | > 7.00 | –
CNC(=O)c1c(-c2ccc(F)cc2)oc2cc(N(CCF)S(C)(=O)=O)c(-c3cccc(C(=O)NC(C4CC4)C4CC4)c3)cc12 [Compound 3010] | > 7.00 | 0.0056
CNC(=O)c1c(-c2ccc(F)cc2)oc2cc(N(CCF)S(C)(=O)=O)c(-c3cccc(C(=O)NC4(C#N)CC4)c3)cc12 [Compound 3011] | > 7.00 | –
CNC(=O)c1c(-c2ccc(F)cc2)oc2cc(N(CCF)S(C)(=O)=O)c(-c3cccc(C(=O)NCC(F)(F)C(F)(F)F)c3)cc12 [Compound 3012] | > 7.00 | 0.0032
CNC(=O)c1c(-c2ccc(F)cc2)oc2cc(N(CCF)S(C)(=O)=O)c(-c3cccc(C(=O)NC(C)(C)CF)c3)cc12 [Compound 3013] | > 7.00 | –
CNC(=O)c1c(-c2ccc(F)cc2)oc2cc(N(CCF)S(C)(=O)=O)c(-c3cccc(C(=O)NC(C)(C)C(=O)OC)c3)cc12 [Compound 3014] | > 7.00 | –
CNC(=O)c1c(-c2ccc(F)cc2)oc2cc(N(CCF)S(C)(=O)=O)c(-c3cccc(C(=O)NCC(C)(C)C)c3)cc12 [Compound 3015] | > 7.00 | –
CNC(=O)c1c(-c2ccc(F)cc2)oc2cc(N(CCF)S(C)(=O)=O)c(-c3cccc(C(=O)NC(C)(C)C)c3)cc12 [Compound 3016] | > 7.00 | –

SMILES | pEC50 | EC50 [µM]
CNC(=O)c1c(-c2ccc(F)cc2)oc2cc(N(CCF)S(C)(=O)=O)c(-c3cccc(C(=O)N4CCC(C)(C)C4)c3)cc12 [Compound 3017] | > 7.00 | 0.0063
CNC(=O)c1c(-c2ccc(F)cc2)oc2cc(N(CCF)S(C)(=O)=O)c(-c3cccc(C(=O)N4CCCC4c4ccc(Cl)cc4)c3)cc12 (stereo not drawn) [Compound 3018] | > 7.00 | –
CNC(=O)c1c(-c2ccc(F)cc2)oc2cc(N(CCF)S(C)(=O)=O)c(-c3cccc(C(=O)N4CCN(C)CC4c4ccccc4)c3)cc12 (stereo not drawn) [Compound 3019] | > 7.00 | –
CNC(=O)c1c(-c2ccc(F)cc2)oc2cc(N(CCF)S(C)(=O)=O)c(-c3cccc(C(=O)N4CCN(c5ccc(Cl)cc5)CC4)c3)cc12 [Compound 3020] | > 7.00 | 0.0094
CNC(=O)c1c(-c2ccc(F)cc2)oc2cc(N(CCF)S(C)(=O)=O)c(-c3cccc(C(=O)N[C@H](C)C(F)(F)F)c3)cc12 [Compound 3021] | > 7.00 | –
CNC(=O)c1c(-c2ccc(F)cc2)oc2cc(N(CCF)S(C)(=O)=O)c(-c3cccc(C(=O)N4CCCC4c4cccnc4)c3)cc12 (stereo not drawn) [Compound 3022] | > 7.00 | –
CNC(=O)c1c(-c2ccc(F)cc2)oc2cc(N(CCF)S(C)(=O)=O)c(-c3cccc(C(=O)N4[C@H](C)CC[C@H]4C)c3)cc12 [Compound 3023] | > 7.00 | –
CNC(=O)c1c(-c2ccc(F)cc2)oc2cc(N(CCF)S(C)(=O)=O)c(-c3cccc(C(=O)N4CCCC4C)c3)cc12 (stereo not drawn) [Compound 3024] | > 7.00 | –
CNC(=O)c1c(-c2ccc(F)cc2)oc2cc(N(CCF)S(C)(=O)=O)c(-c3cccc(C(=O)N4CCN(c5ccccc5)CC4)c3)cc12 [Compound 3025] | > 7.00 | –
CNC(=O)c1c(-c2ccc(F)cc2)oc2cc(N(CCF)S(C)(=O)=O)c(-c3cccc(C(=O)N4[C@@H](COC)CC[C@@H]4COC)c3)cc12 [Compound 3026] | 6.00 to 7.00 | 0.332
CCC1CCCN1C(=O)c1cccc(-c2cc3c(C(=O)NC)c(-c4ccc(F)cc4)oc3cc2N(CCF)S(C)(=O)=O)c1 (stereo not drawn) [Compound 3027] | > 7.00 | –
CNC(=O)c1c(-c2ccc(F)cc2)oc2cc(N(CCF)S(C)(=O)=O)c(-c3cccc(C(=O)N4CCN(C(=O)OC(C)(C)C)CC4)c3)cc12 [Compound 3028] | > 7.00 | –
CNC(=O)c1c(-c2ccc(F)cc2)oc2cc(N(CCF)S(C)(=O)=O)c(-c3cccc(C(=O)N4CCC[C@H]4C(=O)OC(C)(C)C)c3)cc12 [Compound 3029] | > 7.00 | –
CNC(=O)c1c(-c2ccc(F)cc2)oc2cc(N(CCF)S(C)(=O)=O)c(-c3cccc(C(=O)N4CCC[C@@H]4CO)c3)cc12 [Compound 3030] | 6.00 to 7.00 | 0.139
CNC(=O)c1c(-c2ccc(F)cc2)oc2cc(N(CCF)S(C)(=O)=O)c(-c3cccc(C(=O)N4CCN(C(=O)OC(C)(C)C)CC4c4ccccc4)c3)cc12 (stereo not drawn) [Compound 3031] | > 7.00 | –
CNC(=O)c1c(-c2ccc(F)cc2)oc2cc(N(CCF)S(C)(=O)=O)c(-c3cccc(C(=O)N4CCN(c5cccnc5)CC4)c3)cc12 [Compound 3032] | < 6.00 | 2.64
CNC(=O)c1c(-c2ccc(F)cc2)oc2cc(N(CCF)S(C)(=O)=O)c(-c3cccc(C(=O)N4CCN(CC(C)C)CC4)c3)cc12 [Compound 3033] | > 7.00 | –
CNC(=O)c1c(-c2ccc(F)cc2)oc2cc(N(CCF)S(C)(=O)=O)c(-c3cccc(C(=O)N4CCC(c5ccc(F)cc5)C4)c3)cc12 (stereo not drawn) [Compound 3034] | > 7.00 | 0.0117
CNC(=O)c1c(-c2ccc(F)cc2)oc2cc(N(CCF)S(C)(=O)=O)c(-c3cccc(C(=O)N4CCC[C@H]4CO)c3)cc12 [Compound 3035] | 6.00 to 7.00 | –
CNC(=O)c1c(-c2ccc(F)cc2)oc2cc(N(CCF)S(C)(=O)=O)c(-c3cccc(C(=O)N4CCC(NC(C)=O)C4)c3)cc12 (stereo not drawn) [Compound 3036] | < 6.00 | –
CNC(=O)c1c(-c2ccc(F)cc2)oc2cc(N(CCF)S(C)(=O)=O)c(-c3cccc(C(=O)N4CC[C@H](O)C4)c3)cc12 [Compound 3037] | < 6.00 | –
CNC(=O)c1c(-c2ccc(F)cc2)oc2cc(N(CCF)S(C)(=O)=O)c(-c3cccc(C(=O)N4CC[C@@H](NC(=O)OC(C)(C)C)C4)c3)cc12 [Compound 3038] | > 7.00 | –
